{
  "source": "ChEMBL document CHEMBL1152823",
  "about": "“Identification of novel epoxide inhibitors of hepatitis C virus replication using a high-throughput screen” (Antimicrob Agents Chemother, 2007)",
  "key": {"[1]": {"experiment": "Cytotoxicity against human HuH7 cells", "format": "cell-based, Huh-7"}, "Hepatitis C virus [2]": {"test_system": "Hepatitis C virus", "experiment": "Antiviral activity against HCV replication in human HuH7 cells expressing Rep-Feo replicon by luciferase assay", "format": "functional, organism-based, Hepacivirus hominis", "settings": "Huh-7"}, "Hepatitis C virus [3]": {"test_system": "Hepatitis C virus", "experiment": "Antiviral activity against HCV JFH1 replication in human Huh7.5.1 cells at 1 uM after 48 hrs by quantitative RT-PCR analysis relative to 1 ng/ml interferon", "format": "functional, Hepacivirus hominis, JFH-1, Huh-7"}, "Hepatitis C virus [4]": {"test_system": "Hepatitis C virus", "experiment": "Antiviral activity against HCV JFH1 replication in human Huh7.5.1 cells at 5 uM after 48 hrs by quantitative RT-PCR analysis relative to 1 ng/ml interferon", "format": "functional, Hepacivirus hominis, JFH-1, Huh-7"}},
  "data": [
    {"smiles": "C[C@H](O/N=C1\\[C@H]2CCn3c(=O)n(-c4ccccc4)c(=O)n3C2[C@H](O)[C@@H]2O[C@H]12)c1cn([C@H](CO)Cc2ccccc2)nn1", "note": "(stereo partly specified)", "values": [
      {"measurement": "CC50", "setting": "[1]", "result": "> 50", "unit": "µM"},
      {"measurement": "EC50", "setting": "Hepatitis C virus [2]", "result": 7, "unit": "µM"}
    ]},
    {"smiles": "Cc1cc(C)c(-c2cc([C@H](C)O/N=C3\\[C@H]4CCn5c(=O)n(-c6ccccc6)c(=O)n5C4[C@H](O)[C@@H]4O[C@H]34)on2)c(C)c1", "note": "(stereo partly specified)", "values": [
      {"measurement": "CC50", "setting": "[1]", "result": 19.5, "unit": "µM"},
      {"measurement": "Activity", "setting": "Hepatitis C virus [3]", "result": 45.1, "unit": "%"},
      {"measurement": "EC50", "setting": "Hepatitis C virus [2]", "result": "< 0.5", "unit": "µM"},
      {"measurement": "Activity", "setting": "Hepatitis C virus [4]", "result": 48.4, "unit": "%"}
    ]},
    {"smiles": "O=C1C2C=C(I)C(CC2OCCCCO)[C@]12CO2", "note": "(stereo partly specified)", "values": [
      {"measurement": "CC50", "setting": "[1]", "result": "> 50", "unit": "µM"},
      {"measurement": "EC50", "setting": "Hepatitis C virus [2]", "result": 25.7, "unit": "µM"}
    ]},
    {"smiles": "COc1ccc(O[C@H]2C=C[C@@H](c3ccccc3)O[C@@H]2CO/N=C(\\C)CCN2CCc3nc(-c4ccccc4)c(-c4ccccc4)cc3C2)cc1", "values": [
      {"measurement": "CC50", "setting": "[1]", "result": "> 50", "unit": "µM"},
      {"measurement": "EC50", "setting": "Hepatitis C virus [2]", "result": 21.1, "unit": "µM"}
    ]},
    {"smiles": "O=C1C2C=C(Br)C(CC2c2ccccc2)[C@]12CO2", "note": "(stereo partly specified)", "values": [
      {"measurement": "CC50", "setting": "[1]", "result": "> 50", "unit": "µM"},
      {"measurement": "EC50", "setting": "Hepatitis C virus [2]", "result": 19.7, "unit": "µM"}
    ]},
    {"smiles": "O=C1[C@@]2(CO)C=C(Br)C(CC2c2ccccc2)[C@]12CO2", "note": "(stereo partly specified)", "values": [
      {"measurement": "CC50", "setting": "[1]", "result": "> 50", "unit": "µM"},
      {"measurement": "EC50", "setting": "Hepatitis C virus [2]", "result": 6.6, "unit": "µM"}
    ]},
    {"smiles": "O=C1[C@@]2(CO)C=C(I)C(CC2c2ccccc2)[C@]12CO2", "note": "(stereo partly specified)", "values": [
      {"measurement": "CC50", "setting": "[1]", "result": 27.1, "unit": "µM"},
      {"measurement": "Activity", "setting": "Hepatitis C virus [3]", "result": 45.1, "unit": "%"},
      {"measurement": "EC50", "setting": "Hepatitis C virus [2]", "result": 3.5, "unit": "µM"},
      {"measurement": "Activity", "setting": "Hepatitis C virus [4]", "result": 48.4, "unit": "%"}
    ]},
    {"smiles": "O=C1C2C=C(Br)C(CC2OCCCCCCO)[C@]12CO2", "note": "(stereo partly specified)", "values": [
      {"measurement": "CC50", "setting": "[1]", "result": "> 50", "unit": "µM"},
      {"measurement": "EC50", "setting": "Hepatitis C virus [2]", "result": 19.6, "unit": "µM"}
    ]},
    {"smiles": "CC(=O)OC[C@H]1OC(CCO/N=C2/[C@H]3CCn4c(=O)n(-c5ccccc5)c(=O)n4[C@H]3[C@H](O)[C@@H]3O[C@H]23)C=C[C@@H]1OC(C)=O", "note": "(stereo partly specified)", "values": [
      {"measurement": "CC50", "setting": "[1]", "result": 9, "unit": "µM"},
      {"measurement": "EC50", "setting": "Hepatitis C virus [2]", "result": 0.7, "unit": "µM"}
    ]},
    {"smiles": "C#CCCCO/N=C1/[C@H]2CCN3C(=O)N(c4ccccc4)CN3[C@H]2[C@H](O)[C@@H]2O[C@H]12", "values": [
      {"measurement": "CC50", "setting": "[1]", "result": "> 50", "unit": "µM"},
      {"measurement": "EC50", "setting": "Hepatitis C virus [2]", "result": 1.4, "unit": "µM"}
    ]},
    {"smiles": "O=C1C2C=C(I)C(CC2c2ccccc2)[C@]12CO2", "note": "(stereo partly specified)", "values": [
      {"measurement": "CC50", "setting": "[1]", "result": "> 50", "unit": "µM"},
      {"measurement": "EC50", "setting": "Hepatitis C virus [2]", "result": 9.1, "unit": "µM"}
    ]},
    {"smiles": "CO[C@]12C=C(Br)C(CC1c1cccc(C)c1)[C@]1(CO1)C2=O", "note": "(stereo partly specified)", "values": [
      {"measurement": "CC50", "setting": "[1]", "result": "> 50", "unit": "µM"},
      {"measurement": "EC50", "setting": "Hepatitis C virus [2]", "result": 8, "unit": "µM"}
    ]},
    {"smiles": "C#CCCCO/N=C1/[C@H]2CCN3C(=O)N([C@@H](CC)c4ccccc4)CN3[C@H]2[C@H](O)[C@@H]2O[C@H]12", "values": [
      {"measurement": "CC50", "setting": "[1]", "result": "> 50", "unit": "µM"},
      {"measurement": "EC50", "setting": "Hepatitis C virus [2]", "result": 3.8, "unit": "µM"}
    ]},
    {"smiles": "Cc1cc2c(nc1C)CCCN2C[C@H](C)O/N=C1\\[C@H]2CCn3c(=O)n(-c4ccccc4)c(=O)n3[C@H]2[C@H](O)[C@@H]2O[C@H]12", "values": [
      {"measurement": "CC50", "setting": "[1]", "result": 39.3, "unit": "µM"},
      {"measurement": "EC50", "setting": "Hepatitis C virus [2]", "result": 1.5, "unit": "µM"}
    ]},
    {"smiles": "CC(=O)OC[C@H]1O[C@@H](O/N=C2/[C@H]3CCn4c(=O)n(-c5ccccc5)c(=O)n4C3[C@H](O)[C@@H]3O[C@H]23)[C@H](OC(C)=O)[C@@H](OC(C)=O)[C@@H]1OC(C)=O", "note": "(stereo partly specified)", "values": [
      {"measurement": "CC50", "setting": "[1]", "result": "> 50", "unit": "µM"},
      {"measurement": "EC50", "setting": "Hepatitis C virus [2]", "result": 42.9, "unit": "µM"}
    ]},
    {"smiles": "O=C1C2C=C(I)C(CC2OCCCCCCO)[C@]12CO2", "note": "(stereo partly specified)", "values": [
      {"measurement": "CC50", "setting": "[1]", "result": "> 50", "unit": "µM"},
      {"measurement": "EC50", "setting": "Hepatitis C virus [2]", "result": 26.7, "unit": "µM"}
    ]},
    {"smiles": "O=C1C2C=C(I)C(CC2OCCCCO)[C@]12CCCO2", "note": "(stereo partly specified)", "values": [
      {"measurement": "CC50", "setting": "[1]", "result": "> 50", "unit": "µM"},
      {"measurement": "EC50", "setting": "Hepatitis C virus [2]", "result": "> 30", "unit": "µM"}
    ]},
    {"smiles": "C[C@@H](O/N=C1\\[C@H]2CCn3c(=O)n(-c4ccccc4)c(=O)n3C2[C@H](O)[C@@H]2O[C@H]12)c1cn([C@H](CO)Cc2ccccc2)nn1", "note": "(stereo partly specified)", "values": [
      {"measurement": "CC50", "setting": "[1]", "result": "> 50", "unit": "µM"},
      {"measurement": "EC50", "setting": "Hepatitis C virus [2]", "result": 7.6, "unit": "µM"}
    ]},
    {"smiles": "C=CC[C@@H]1C=C[C@H](O/N=C2\\[C@H]3CCn4c(=O)n(-c5ccccc5)c(=O)n4[C@H]3[C@H](O)[C@@H]3O[C@H]23)[C@@H](CO)O1", "values": [
      {"measurement": "CC50", "setting": "[1]", "result": 35.3, "unit": "µM"},
      {"measurement": "EC50", "setting": "Hepatitis C virus [2]", "result": 7.75, "unit": "µM"}
    ]},
    {"smiles": "COc1ccc(O[C@H]2C=C[C@@H](c3ccccc3)O[C@@H]2CO/N=C2/[C@H]3CCn4c(=O)n(-c5ccccc5)c(=O)n4[C@H]3[C@H](O)[C@@H]3O[C@H]23)cc1", "values": [
      {"measurement": "CC50", "setting": "[1]", "result": 18, "unit": "µM"},
      {"measurement": "EC50", "setting": "Hepatitis C virus [2]", "result": 2.6, "unit": "µM"}
    ]},
    {"smiles": "C[C@@]12COC[C@]13C=C(Br)C(C2)[C@]1(CO1)C3=O", "values": [
      {"measurement": "CC50", "setting": "[1]", "result": "> 50", "unit": "µM"},
      {"measurement": "EC50", "setting": "Hepatitis C virus [2]", "result": 12.7, "unit": "µM"}
    ]},
    {"smiles": "C#CCCCO/N=C1/C[C@@H](O)[C@@H](O)[C@@H]2[C@@H]3C(=O)N(CCC(=O)OCC)C(=O)[C@@H]3CC[C@@H]12", "values": [
      {"measurement": "CC50", "setting": "[1]", "result": "> 50", "unit": "µM"},
      {"measurement": "EC50", "setting": "Hepatitis C virus [2]", "result": "> 100", "unit": "µM"}
    ]},
    {"smiles": "CC[C@@H](c1ccccc1)N1CN2[C@H]3[C@H](O)[C@@H]4O[C@@H]4/C(=N\\OC[C@@H](O)COCc4ccco4)[C@H]3CCN2C1=O", "values": [
      {"measurement": "CC50", "setting": "[1]", "result": "> 50", "unit": "µM"},
      {"measurement": "EC50", "setting": "Hepatitis C virus [2]", "result": 2.5, "unit": "µM"}
    ]},
    {"smiles": "O=c1n(-c2ccccc2)c(=O)n2n1CC[C@@H]1/C(=N\\OC[C@@H](O)COCc3ccco3)[C@H]3O[C@H]3[C@@H](O)C12", "note": "(stereo partly specified)", "values": [
      {"measurement": "CC50", "setting": "[1]", "result": "> 50", "unit": "µM"},
      {"measurement": "EC50", "setting": "Hepatitis C virus [2]", "result": 7, "unit": "µM"}
    ]},
    {"smiles": "c1ccc(C2NCCc3c2[nH]c2ccccc32)cc1", "note": "(stereo unspecified)", "values": [
      {"measurement": "CC50", "setting": "[1]", "result": "> 50", "unit": "µM"},
      {"measurement": "EC50", "setting": "Hepatitis C virus [2]", "result": 30, "unit": "µM"}
    ]},
    {"smiles": "CCCNC(=O)OC[C@H]1O[C@H](CCO/N=C(\\C)CCN2CCc3nc(-c4ccccc4)c(-c4ccccc4)cc3C2)C=C[C@@H]1Oc1ccc(OC)cc1", "values": [
      {"measurement": "CC50", "setting": "[1]", "result": "> 50", "unit": "µM"},
      {"measurement": "EC50", "setting": "Hepatitis C virus [2]", "result": 14.2, "unit": "µM"}
    ]}
  ]
}
